Legend:
[1] = test system: B16F10-Cas9 cells co-cultured with Pmel-1 T cells; experiment: Genome-scale CRISPR-Cas9 screen, selection with Pmel-1 T cells; type: cell-based, mouse; details: Table 3; B16F10-Cas9 cells pre-treated with IFNγ, co-cultured with Pmel-1 T cells 1:1 for three days; negative = depleted, positive = enriched
[2] = test system: B16F10-Cas9 cells pulsed with SIINFEKL peptide, co-cultured with OT-I T cells; experiment: Genome-scale CRISPR-Cas9 screen, selection with OT-I T cells; type: cell-based, mouse; details: Table 3; B16F10-Cas9 cells pulsed with SIINFEKL, co-cultured with OT-I T cells 1:1 for one day; negative = depleted, positive = enriched

Sequence | Pmel+ (sgRNA Log(2) fold change, Pmel-1 selection versus control T cells) [1] | OT1 (sgRNA Log(2) fold change, OT-I selection versus control T cells) [2]
CAGCAGCAAGTTCACAGGTG (chemistry not fully specified) | -1.37 | -3.04
CAGCATTGACAATACGACCA (chemistry not fully specified) | 0.62 | -3.84
CAGCCTGCTGAGGATCCAGA (chemistry not fully specified) | -1.07 | -2.33
CAGGACTTCTGGTCTATCCG (chemistry not fully specified) | -1.47 | -3.14
CAGTGTCACAACCCACCGGA (chemistry not fully specified) | 0.23 | -2.75
CATAGCCAGAACAGTTGACC (chemistry not fully specified) | -0.66 | -2.44
CATGAGGTAGAATAGTTCGT (chemistry not fully specified) | 2.15 | -0.65
CATGCAATACATGCCAAAGG (chemistry not fully specified) | -0.22 | -2.39
CCAAACACCCCACATATGGT (chemistry not fully specified) | -0.79 | -2.24
CCATATCCAAATAGCCACAG (chemistry not fully specified) | -2.19 | -3.59
CCATTGTATAACTGTCTGCG (chemistry not fully specified) | -1.14 | -3.02
CCCACGAATTCGTCACAGGG (chemistry not fully specified) | 2.63 | 1.32
CCCGGACTGGATCAACACCG (chemistry not fully specified) | -0.09 | -3.76
CCCGGGAATAGCGTACAGCT (chemistry not fully specified) | 0.70 | -2.71
CCGAGACCCCAATAGTGCAA (chemistry not fully specified) | 2.89 | 0.71
CCGCAGCAGATAGACACCAT (chemistry not fully specified) | -0.11 | -2.54
CCGCTCGAAGAAGCACTCCT (chemistry not fully specified) | 0.95 | -3.04
CCTCCGACATTCCGTAACTG (chemistry not fully specified) | -1.90 | -2.32
CCTGGGCTAGCACATAACCA (chemistry not fully specified) | 0.10 | -3.35
CCTGGGTACCAACTGACGAA (chemistry not fully specified) | -2.96 | -2.91
CCTTCAATAACGTTAAACAG (chemistry not fully specified) | -0.26 | -2.79
CCTTTAGTAGCAGAAGCCGC (chemistry not fully specified) | 0.73 | -2.95
CGACGCAAGTGGGAGCAGAG (chemistry not fully specified) | 3.91 | -2.09
CGATGCCATTCGAATGACAG (chemistry not fully specified) | 8.40 | 1.57
CGGATGGCCACACGTAACAG (chemistry not fully specified) | 3.00 | 0.20
CGGCCCGCCGATGTCGTGTG (chemistry not fully specified) | -0.25 | -3.19

Sequence | Pmel+ (sgRNA Log(2) fold change, Pmel-1 selection versus control T cells) [1] | OT1 (sgRNA Log(2) fold change, OT-I selection versus control T cells) [2]
CGGGTATTACAGACTAACTG (chemistry not fully specified) | 3.20 | 2.71
CTCAGCTGGATACAACCAGG (chemistry not fully specified) | 0.00 | -2.27
CTCTTCCAACACGTCCAAGT (chemistry not fully specified) | 3.56 | 0.64
CTGAGCATGTCTAACACGAG (chemistry not fully specified) | -0.37 | -2.99
CTGCACCAATGTTGGTCACG (chemistry not fully specified) | 2.82 | 0.32
CTGCAGCATATCGTCAACCA (chemistry not fully specified) | -0.72 | -2.30
CTGTTACCTTCATAGATAAG (chemistry not fully specified) | 0.00 | -2.50
CTTCAGATCTCTCTCGAATG (chemistry not fully specified) | -2.11 | -2.84
CTTCCTGGACATCGACGTGG (chemistry not fully specified) | 0.56 | -2.12
CTTGGTCAAATACACTACAG (chemistry not fully specified) | 2.66 | 1.61
CTTGTGACGGTAATTCTGAA (chemistry not fully specified) | 0.00 | -2.48
GAAAAATCTGTACACCACCG (chemistry not fully specified) | -0.30 | -2.64
GAAAAGCAAGCGTAATCTCC (chemistry not fully specified) | 8.13 | 2.70
GAACACTCAGCAAATTACAG (chemistry not fully specified) | -0.81 | -2.58
GAAGACCAAAGAAGTTCATG (chemistry not fully specified) | 2.37 | -0.52
GAAGTAAAGGGATTTAACAG (chemistry not fully specified) | -0.84 | -2.59
GAATACGAAGCAGAAAAGGT (chemistry not fully specified) | 0.00 | -2.50
GAATCCTCCAGAAGGAATCG (chemistry not fully specified) | 2.99 | 0.26
GAATCTGAATGGAGGAACCT (chemistry not fully specified) | 0.00 | -2.21
GAATGATATTATAGCGACGA (chemistry not fully specified) | 0.59 | -2.20
GAATTGCAACGCCCACACCG (chemistry not fully specified) | 0.39 | -3.93
GACAAGATGACAAACCTGGT (chemistry not fully specified) | 3.45 | 1.65
GAGATCTGCACATTCCGCAC (chemistry not fully specified) | -0.78 | -2.69
GAGTTGCAGCCAGATACGCG (chemistry not fully specified) | -1.28 | -3.25
GATATGCTACAGGACCTTCG (chemistry not fully specified) | 0.44 | -2.83
GATGTGTCCCTAGTCTACCG (chemistry not fully specified) | -0.24 | -3.40
